{"source": "patent US20250127734A1", "about": "“ALZ-801 FOR USE IN TREATING A COVID-19 ASSOCIATED NEUROLOGICAL SYMPTOM” (Alzheon, Inc., priority 2022, published 2025)", "key": {"plasma p-tau181": {"system": "plasma p-tau181", "assay": "Phase 2 trial in early AD APOE4 carriers: plasma p-tau181 (Simoa)", "assay_type": "in vivo, human", "conditions": "265 mg BID oral, APOE4/4 or APOE3/4, change from baseline", "method": "(§1) Evaluation of disease modifying effects from phase 2 trial of ALZ-801 (valiltramiprosate) in subjects with early Alzheimer's disease were conducted. The study enrolled 84 patients, with early AD, who carry the APOE4/4 or APOE3/4 genotype and have an MMSE score ranging from 22 to 30 (CDR-G 0.5 or 1). Each patient received 265 mg ALZ-801 twice daily. The average MMSE score of the subjects was 26 (mean age 69 years, 52% female). Subjects were either amyloid PET positive or A+/T+ on CSF assays. CSF criteria were: Ratio of Aβ42/40×10≤0.61, and p-tau181≥61 pg/ml. CSF was evaluated at 52 weeks, and plasma biomarkers at every visit.\n(§2) All fluid biomarker analyses were performed at the Neurochemistry Laboratory of Dr. Blennow (Molndal, Sweden), and were blinded to subject's demographics or genotype. CSF biomarker assays were analyzed using Lumipulse (Fujirebio) and plasma assays utilized Simoa assays. Cognitive tests include the Rey Auditory Verbal Learning Test (RAVLT: immediate, delayed and recognition memory) and Digit Symbol Substitution Tests (DSST), and a composite Z-score is calculated (3-item RAVLT+DSST). Change from baseline (CBL) analyses were performed on the mITT population and included all observed data, using paired t-tests and 2-sided p-values. The primary biomarker outcome was p-tau181.\n(§3) Of the 84 APOE4 carrier that were enrolled and received ALZ-801, 80 and 75 subjects completed 26 and 52 weeks respectively. […] This is much greater than the annualized ˜12% reduction in plasma p-tauisi observed in the recent human clinical trials of the anti-amyloid antibody lecanemab (van Dyck, C H et al., N Engl J Med 2023; 388: 9-21, DOI: 10.1056/NEJMoa2212948)."}, "plasma Abeta40": {"system": "plasma Abeta40", "assay": "Phase 2 trial in early AD APOE4 carriers: plasma Abeta40", "assay_type": "in vivo, human", "conditions": "52 weeks; 265 mg BID oral; p=0.002", "method": "as §1\nas §2, with “p-tau181. […]” for “p-tau181.”"}, "[1]": {"system": "plasma p-tau181/Abeta42 ratio", "assay": "Phase 2 trial in early AD APOE4 carriers: plasma p-tau181/Abeta42 ratio", "assay_type": "in vivo, human", "conditions": "265 mg BID oral", "method": "as §1, §2, §3"}, "plasma Abeta42": {"system": "plasma Abeta42", "assay": "Phase 2 trial in early AD APOE4 carriers: plasma Abeta42", "assay_type": "in vivo, human", "conditions": "52 weeks; 265 mg BID oral; p=0.005", "method": "as §1\nas §2, with “p-tau181. […]” for “p-tau181.”"}, "[2]": {"assay": "Phase 2 trial in early AD APOE4 carriers: brain volumes (hippocampal, ventricular; MRI) vs matched ADNI cohort", "assay_type": "in vivo, human", "method": "as §1\nUnlike anti-amyloid antibodies, such as Lecanemab, ALZ-801 treatment over 52 weeks also appeared to show an ˜15% reduction in ventricular volume expansion as measured by MRI (p=0.08)."}, "[3]": {"conditions": "cited from earlier work"}}, "note": "Values joined by “and” are separate entries in the source; they are usually repeats but may differ in a detail not shown here. Equal values may be shown once.", "data": [{"molecule": "CC(C)[C@H](N)C(=O)NCCCS(=O)(=O)O", "note": "[ALZ-801, valyl-3-amino-1-propanesulfonic acid]", "values": [{"measurement": "reduction in plasma p-tau181", "setting": "plasma p-tau181; 13 weeks, p=0.014", "value": 18, "unit": "%"}, {"measurement": "reduction in plasma p-tau181", "setting": "plasma p-tau181; 26 weeks, p=0.014", "value": 29, "unit": "%"}, {"measurement": "reduction in plasma p-tau181", "setting": "plasma p-tau181; 52 weeks, p=0.016", "value": 41, "unit": "%"}, {"measurement": "reduction in plasma Abeta40", "setting": "plasma Abeta40", "value": 5, "unit": "%"}, {"measurement": "reduction in plasma p-tau181/Abeta42 ratio", "setting": "[1]; 13 weeks, p=0.011", "value": 21, "unit": "%"}, {"measurement": "reduction in plasma p-tau181/Abeta42 ratio", "setting": "[1]; 26 weeks, p=0.011", "value": 30, "unit": "%"}, {"measurement": "reduction in plasma p-tau181/Abeta42 ratio", "setting": "[1]; 52 weeks, p=0.032", "value": "37% and 31%"}, {"measurement": "reduction in plasma Abeta42", "setting": "plasma Abeta42", "value": 5, "unit": "%"}, {"measurement": "annualized reduction in atrophy of hippocampal volume", "setting": "[2]; compared to a well-matched ADNI cohort, p=0.05", "value": "~20", "unit": "%"}, {"measurement": "reduction in ventricular volume expansion", "setting": "[2]; over 52 weeks, measured by MRI, p=0.08", "value": "~15", "unit": "%"}]}, {"molecule": "lecanemab: anti-amyloid antibody (antibody, chains of the INN, looked up, V domains shown) VH: EVQLVESGGGLVQPGGSLRLSCSASGFTFSSFGMHWVRQAPGKGLEWVAYISSGSSTIYYGDTVKGRFTISRDNAKNSLFLQMSSLRAEDTAVYYCAREGGYYYGRSYYTMDYWGQGTTVTVSS VL: DVVMTQSPLSLPVTPGAPASISCRSSQSIVHSNGNTYLEWYLQKPGQSPKLLIYKVSNRFSGVPDRFSGSGSGTDFTLRISRVEAEDVGIYYCFQGSHVPPTFGPGTKLEIK", "values": [{"measurement": "annualized reduction in hippocampal volume atrophy, result in words", "setting": "[3]; Van Dyck, 2022", "value": "did not demonstrate any significant annualized reduction"}, {"measurement": "annualized reduction in plasma p-tau181", "setting": "[3]; recent human clinical trials of lecanemab, van Dyck et al. N Engl J Med 2023", "value": "~12", "unit": "%"}]}]}
